In ChEMBL document CHEMBL1201862, “PubChem BioAssay data set” (2004):
Calls of active or inactive are those of the source.

How the values were obtained:
Protein Tat = Protein Tat (Human immunodeficiency virus type 1 group M subtype B (isolate HXB2)(HIV-1), UniProt P04608); type: functional;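 further: tat binding to TAR RNA read out by fluorescence polarization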
Kallikrein-7 = Kallikrein-7 (Homo sapiens, UniProt P49862); assay: Fluorescence Intensity-based biochemical primary high throughput dose response assay to identify activators of kallikrein-7 (K7) zymogen.
[1] = Luminescence-based cell-based high throughput dose response assay to identify activators of the DAF-12 from the parasite S. stercoralis (ssDAF-12).; type: functional
[2] = target: T1, Oxysterols receptor LXR-beta (Homo sapiens, UniProt P55055); assay: LXR agonists, Gal4 luciferase reporter, dose response, counter-screen for ssDAF-12 agonist project, cell-based, luminescence, HEK293, S. stercoralis campaign (AID 720737); type: functional; settings: read-out: IC50 (the source's name)
T1 sequence (P55055 whole entry): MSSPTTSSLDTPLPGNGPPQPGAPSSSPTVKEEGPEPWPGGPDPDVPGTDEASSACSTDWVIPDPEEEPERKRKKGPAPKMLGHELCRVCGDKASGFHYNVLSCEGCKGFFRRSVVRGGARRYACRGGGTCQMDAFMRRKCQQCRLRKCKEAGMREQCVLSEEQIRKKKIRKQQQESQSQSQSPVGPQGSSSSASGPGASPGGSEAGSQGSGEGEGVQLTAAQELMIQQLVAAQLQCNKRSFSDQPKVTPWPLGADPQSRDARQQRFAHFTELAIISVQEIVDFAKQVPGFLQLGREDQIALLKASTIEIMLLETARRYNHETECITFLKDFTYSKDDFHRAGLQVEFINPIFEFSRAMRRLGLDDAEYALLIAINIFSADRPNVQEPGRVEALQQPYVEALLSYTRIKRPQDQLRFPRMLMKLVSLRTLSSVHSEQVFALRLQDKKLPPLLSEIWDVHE

[3] = Luminescence Cell-Based Dose Response HTS to Identify Activators of Luciferase Translation or Activity in H4 […] Cells. [Related pubchem assays: 1829 (Project Summary), 1814 (Primary HTS)]; type: functional
[4] = target: T2, Carboxy-terminal domain RNA polymerase II polypeptide A small phosphatase 1 (Homo sapiens, UniProt Q9GZU7); assay: inhibitors of CTDSP1, concentration-response testing, biochemical assay, absorbance-based, actives from ultra-high-throughput screening (AID 540297); type: functional
T2 sequence (Q9GZU7 whole entry): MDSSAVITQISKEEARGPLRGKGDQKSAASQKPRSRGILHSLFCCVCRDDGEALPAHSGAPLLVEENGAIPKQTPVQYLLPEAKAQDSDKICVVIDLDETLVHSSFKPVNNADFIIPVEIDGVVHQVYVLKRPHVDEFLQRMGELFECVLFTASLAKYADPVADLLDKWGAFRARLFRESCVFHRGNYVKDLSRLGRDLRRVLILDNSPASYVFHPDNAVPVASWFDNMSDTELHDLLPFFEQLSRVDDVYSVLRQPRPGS

ELAV-like protein 1 = ELAV-like protein 1 (Homo sapiens, UniProt Q15717); assay: Identify HuR specific inhibitors.; type: functional
[5] = Counterscreen for activators of the function of SWI/SNF related, matrix associated, actin dependent regulator of chromatin, subfamily a, member 2 (SMARCA2, BRM): Luminescence-based cell-based high throughput dose response assay to identify non-selective compounds using the VP16 reporter assay.; type: functional
[6] = target: SWI/SNF-related matrix-associated actin-dependent regulator of chromatin subfamily A member 2 (Homo sapiens, UniProt P51531); assay: Luminescence-based cell-based high throughput dose response assay to identify activators of the function of SWI/SNF related, matrix associated, actin dependent regulator of chromatin, subfamily a, member 2 (SMARCA2, BRM).; type: functional
Caspase-6 = target: T3, Caspase-6 (Homo sapiens, UniProt P55212); assay: human caspase-6 inhibitors, dose response, biochemical, VEID-R110 fluorescence, cherry-pick (AID 720632)
T3 sequence (P55212 whole entry): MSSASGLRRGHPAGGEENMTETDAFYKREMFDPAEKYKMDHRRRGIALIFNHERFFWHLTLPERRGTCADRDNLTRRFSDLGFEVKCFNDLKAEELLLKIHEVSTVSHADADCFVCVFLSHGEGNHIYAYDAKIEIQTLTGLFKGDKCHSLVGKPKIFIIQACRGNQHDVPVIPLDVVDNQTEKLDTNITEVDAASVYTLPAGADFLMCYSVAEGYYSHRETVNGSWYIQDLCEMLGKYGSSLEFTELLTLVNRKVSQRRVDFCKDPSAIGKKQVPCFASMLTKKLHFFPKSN

[7] = HIV Env cell-cell fusion inhibitors, dose response, HIV entry, plate reader, dry powder (AID 687023); type: functional, cell-based
[8] = inhibitors of clade B AD8 Env fusion, dose response, cell-based, cherry-pick (AID 652062); type: functional;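 further: luciferase signal from cell-cell fusion driven by HIV-1 clade B AD8 Env; potency is for inhibitors of fusion seen as a drop in luminescence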
[9] = ZM109 Env clade C HIV-1 fusion inhibitors, dose response, HeLa effector, CEM target cells, luciferase, cherry-pick (AID 652058); type: functional, cell-based
[10] = inhibitors of HIV Env-driven cell fusion, dose response, cherry-pick (AID 652057); type: functional, cell-based
[11] = CEM21 cell cytotoxicity, dose response, cytotoxicity control, plate reader, dry powder (AID 687026); type: functional, cell-based
[12] = off-target signal loss in HeLa-CEM21 co-culture – HeLa F-luc CTL cells, cherry-picked, counter-screen for HIV-1 Env fusion inhibitor project, dose response (AID 652040); type: functional, cell-based;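 further: potency for signal decrease marking cytotoxic or nonspecific inhibition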
[13] = inhibitors of intracellular T. cruzi replication, confirmation, NIH3T3 host cells, beta-gal luminescence (AID 2044); type: functional, cell-based;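 further: intracellular parasites grown in NIH/3T3 mouse fibroblasts as host cells; luminescent beta-galactosidase reporter signal from transgenic T. cruzi replicating inside host cells; inhibitors lower the luminescence signal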
[14] = target: T1, Oxysterols receptor LXR-beta; type: functional, cell-based
[15] = cytotoxicity toward NIH3T3 fibroblasts, dose response, counter-screen, cell-based, ATP luminescence, mouse fibroblasts (AID 2010); type: functional;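 further: cells exposed to compound for about 90 hours before reading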
[16] = cytotoxicity dependent on PAX8, dose response, cell-based, plate reader, dry powder (AID 743049); type: functional
[17] = cytotoxicity in COV434 cells, dose response, cytotoxicity control for PAX8 inhibitor project, cell-based, plate reader, dry powder, SA7 (AID 743145); type: functional
[18] = PAX2 cell-based inhibition, dose response, selectivity assay for PAX8 inhibitor project, plate reader, dry powder samples (AID 743048); type: functional;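 further: HEK293 cells carrying a WT1 promoter luciferase reporter driven by expressed Pax2; potency is for inhibition of Pax2 driven reporter signal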
Paired box protein Pax-8 = Paired box protein Pax-8 (Homo sapiens, UniProt Q06710); assay: inhibitors of PAX8-driven TPO luciferase reporter, dose response, RMG-I cells, cherry-pick (AID 687027); type: functional, cell-based;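 further: luciferase reporter driven by Pax8 target thyroperoxidase promoter measured by SteadyGlo luminescence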
[19] = PAX5 activity inhibitors, dose response, selectivity assay for PAX8 inhibitor project, cell-based, plate reader, dry powder samples (AID 743047); type: functional;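 further: HEK293 cells carrying a Pax5 driven CD19 promoter luciferase reporter; potency of inhibitors that lower reporter luminescence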
[20] = NIH:OVCAR-3 ovarian cancer cell cytotoxicity, dose response, PAX8 inhibitor project, plate reader, dry powder samples (AID 743044); type: functional, cell-based
[21] = cytotoxicity in OVCAR8 ovarian cancer cells, dose response, PAX8 project, cell-based, plate reader, dry powder samples (AID 743197); type: functional; settings: OVCAR-8
[22] = IGROV1 ovarian cancer cell cytotoxicity, dose response, PAX8 inhibitor project, plate reader, dry powder samples (AID 743043); type: functional, cell-based; settings: IGROV-1
[23] = target: NAD-dependent protein deacylase sirtuin-5, mitochondrial (Homo sapiens, UniProt Q9NXA8); assay: SIRT5 deacylase inhibitors, dose response, biochemical, fluorescence imaging, cherry-pick, set 6 (AID 720597)
[24] = MITF Orthogonal Assay: MALME3 CTG Assay Measured in Cell-Based System Using Plate Reader - 2084-04_Inhibitor_Dose_DryPowder_Activity_Set6.; type: functional; settings: MALME-3
[25] = TRPM1 promoter luciferase reporter signal decrease, dose response, MITF inhibitor project, cell-based, SK-MEL-5, dry powder, set 9 (AID 651588); type: functional
[26] = MITF: Counter assay: A375 proliferation Measured in Cell-Based System Using Plate Reader - 2084-03_Inhibitor_Dose_DryPowder_Activity_Set8.; type: functional; settings: A-375
[27] = MALME3 melanoma cell viability reduction, dose response, orthogonal assay for MITF inhibitor project, CellTiter-Glo luminescence, dry powder, set 5 (AID 651584); type: functional, cell-based; settings: MALME-3
[28] = A375 melanoma cell viability loss, dose response, counter-screen for MITF modulator project, CellTiter-Glo luminescence, dry powder, set 9 (AID 651591); type: functional, cell-based; settings: A-375
[29] = MITF Orthogonal Assay: SK-MEL-5 CTG Assay Measured in Cell-Based System Using Plate Reader - 2084-02_Inhibitor_Dose_DryPowder_Activity_Set7.; type: functional
[30] = SK-MEL-5 parental cell viability reduction, dose response, orthogonal assay for MITF inhibitor project, CellTiter-Glo luminescence, dry powder, set 8 (AID 651586); type: functional, cell-based
[31] = TRPM1 promoter luciferase reporter signal decrease, dose response, MITF inhibitor project, cell-based, SK-MEL-5, dry powder, set 8 (AID 624430); type: functional
Phospholipase D1 = Phospholipase D1 (Homo sapiens, UniProt Q13393); assay: PLD1 Cellular Concentration Response Study.; type: functional
Phospholipase D2 [32] = target: T4, Phospholipase D2 (Homo sapiens, UniProt O14939); assay: PLD2 Cellular Concentration Response Study.; type: functional
Phospholipase D2 [33] = target: T4, Phospholipase D2; assay: Discovery of PLD2 inhibitors using the Purified Enzyme Concentration Response Assay.; type: functional
[34] = TB: CFU replicating Measured in Microorganism System Using Imaging - 7108-05_Inhibitor_Dose_DryPowder_Activity_Set2.; type: functional
[35] = P. falciparum Dd2 blood-stage growth inhibition, dose response, SYBR Green fluorescence, erythrocytes, dry powder, set 2 (AID 1159574); type: functional, cell-based
[36] = HeLa 2N DNA content increase, dose response, cell-based, IC50 (AID 1117349); type: functional
[37] = HeLa 4N DNA content increase, dose response, cell-based, IC50 (AID 1117351); type: functional
[38] = RKO cell viability reduction, dose response, CellTiter-Glo luminescence (AID 1117322); type: functional
[39] = CellTiter-Glo luminescent dose response of DLD-1 viability loss (AID 1117352); type: functional
[40] = Concentration-dependent survival of SW480 colon cancer line, luminescence detection with CellTiter-Glo, half-maximal inhibitory concentration (AID 1117338); type: functional
[41] = cytotoxicity toward Colo320 cells – cell-based, CellTiter-Glo luminescence, IC50, dose response (AID 1117334); type: functional; settings: COLO 320
[42] = HCT116 cell viability decrease, GSK3B pretreatment – CellTiter-Glo, IC50, dose response (AID 1117339); type: functional; settings: HCT-116
[43] = cytotoxicity toward HCT116 cells – cell-based, CellTiter-Glo luminescence, IC50, dose response (AID 1117332); type: functional; settings: HCT-116
[44] = cytotoxicity toward HT-29 cells – cell-based, CellTiter-Glo luminescence, IC50, dose response (AID 1117330); type: functional
[45] = SNU-C1 cell viability reduction, dose response, CellTiter-Glo luminescence (AID 1117323); type: functional, cell-based

T4 sequence (O14939 whole entry): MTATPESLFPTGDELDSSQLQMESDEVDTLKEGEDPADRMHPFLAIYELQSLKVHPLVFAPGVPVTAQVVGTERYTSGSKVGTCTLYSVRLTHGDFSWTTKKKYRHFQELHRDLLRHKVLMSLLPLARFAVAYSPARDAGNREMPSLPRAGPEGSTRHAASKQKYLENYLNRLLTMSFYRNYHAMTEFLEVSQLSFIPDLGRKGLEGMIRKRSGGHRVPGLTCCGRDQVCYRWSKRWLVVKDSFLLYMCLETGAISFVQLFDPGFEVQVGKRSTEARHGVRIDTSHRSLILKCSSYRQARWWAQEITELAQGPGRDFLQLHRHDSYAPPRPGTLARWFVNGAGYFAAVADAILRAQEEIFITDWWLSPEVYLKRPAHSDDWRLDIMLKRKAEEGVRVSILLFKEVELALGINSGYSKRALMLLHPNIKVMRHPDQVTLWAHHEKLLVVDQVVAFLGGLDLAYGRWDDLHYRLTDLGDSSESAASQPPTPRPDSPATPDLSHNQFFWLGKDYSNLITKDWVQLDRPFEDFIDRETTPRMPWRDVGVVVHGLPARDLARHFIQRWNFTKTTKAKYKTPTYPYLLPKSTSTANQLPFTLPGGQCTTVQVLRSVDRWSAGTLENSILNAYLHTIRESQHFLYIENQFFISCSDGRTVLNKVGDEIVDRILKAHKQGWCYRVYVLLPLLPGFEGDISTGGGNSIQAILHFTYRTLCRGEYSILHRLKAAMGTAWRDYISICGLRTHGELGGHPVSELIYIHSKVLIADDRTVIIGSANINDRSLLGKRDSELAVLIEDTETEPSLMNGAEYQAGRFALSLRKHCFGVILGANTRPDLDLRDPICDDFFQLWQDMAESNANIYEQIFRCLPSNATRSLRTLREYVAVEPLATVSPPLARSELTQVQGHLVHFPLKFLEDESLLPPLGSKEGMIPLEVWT
Sequence of Phospholipase D1 (Q13393 whole entry): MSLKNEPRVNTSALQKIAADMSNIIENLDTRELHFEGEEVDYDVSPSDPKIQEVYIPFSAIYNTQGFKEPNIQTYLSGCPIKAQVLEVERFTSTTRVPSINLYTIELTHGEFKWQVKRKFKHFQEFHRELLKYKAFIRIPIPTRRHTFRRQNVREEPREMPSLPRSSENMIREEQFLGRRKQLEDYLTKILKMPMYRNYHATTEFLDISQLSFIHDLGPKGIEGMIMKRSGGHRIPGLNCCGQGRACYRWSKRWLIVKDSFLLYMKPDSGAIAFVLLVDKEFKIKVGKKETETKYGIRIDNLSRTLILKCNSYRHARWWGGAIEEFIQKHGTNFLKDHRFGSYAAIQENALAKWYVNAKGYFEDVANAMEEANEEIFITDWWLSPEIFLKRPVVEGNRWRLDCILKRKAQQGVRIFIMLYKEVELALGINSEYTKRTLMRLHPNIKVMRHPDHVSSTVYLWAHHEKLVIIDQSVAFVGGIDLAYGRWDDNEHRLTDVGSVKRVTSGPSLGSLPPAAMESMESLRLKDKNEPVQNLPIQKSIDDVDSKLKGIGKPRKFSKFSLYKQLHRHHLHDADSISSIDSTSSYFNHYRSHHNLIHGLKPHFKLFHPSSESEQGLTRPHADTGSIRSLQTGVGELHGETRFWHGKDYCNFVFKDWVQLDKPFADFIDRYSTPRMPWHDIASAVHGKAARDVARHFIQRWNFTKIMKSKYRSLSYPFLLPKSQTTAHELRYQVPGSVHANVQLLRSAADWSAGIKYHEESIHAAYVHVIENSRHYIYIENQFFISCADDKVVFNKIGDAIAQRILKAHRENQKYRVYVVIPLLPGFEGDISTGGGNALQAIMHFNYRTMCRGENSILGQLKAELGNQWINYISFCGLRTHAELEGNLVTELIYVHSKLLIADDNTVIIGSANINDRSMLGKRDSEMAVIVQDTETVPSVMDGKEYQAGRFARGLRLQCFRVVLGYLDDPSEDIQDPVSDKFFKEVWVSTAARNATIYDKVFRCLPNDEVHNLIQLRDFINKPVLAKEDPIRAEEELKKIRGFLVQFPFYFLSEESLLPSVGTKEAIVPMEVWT
Sequence of Paired box protein Pax-8 (Q06710 whole entry): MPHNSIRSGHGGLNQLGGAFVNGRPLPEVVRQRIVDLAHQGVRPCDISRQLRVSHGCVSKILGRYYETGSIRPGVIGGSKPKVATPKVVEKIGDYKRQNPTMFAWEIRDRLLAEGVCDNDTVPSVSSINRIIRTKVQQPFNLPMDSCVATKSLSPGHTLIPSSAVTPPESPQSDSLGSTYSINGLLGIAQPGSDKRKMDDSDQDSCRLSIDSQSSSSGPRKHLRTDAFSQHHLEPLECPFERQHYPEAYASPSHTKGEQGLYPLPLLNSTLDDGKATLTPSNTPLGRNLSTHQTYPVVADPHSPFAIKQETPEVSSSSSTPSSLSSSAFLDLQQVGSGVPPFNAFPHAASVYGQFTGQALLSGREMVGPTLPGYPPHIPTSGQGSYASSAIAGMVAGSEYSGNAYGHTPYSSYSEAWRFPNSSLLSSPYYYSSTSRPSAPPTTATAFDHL
Sequence of Protein Tat (P04608 whole entry): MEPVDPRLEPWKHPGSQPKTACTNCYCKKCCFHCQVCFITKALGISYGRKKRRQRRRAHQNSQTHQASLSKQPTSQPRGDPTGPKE
Sequence of ELAV-like protein 1 (Q15717 whole entry): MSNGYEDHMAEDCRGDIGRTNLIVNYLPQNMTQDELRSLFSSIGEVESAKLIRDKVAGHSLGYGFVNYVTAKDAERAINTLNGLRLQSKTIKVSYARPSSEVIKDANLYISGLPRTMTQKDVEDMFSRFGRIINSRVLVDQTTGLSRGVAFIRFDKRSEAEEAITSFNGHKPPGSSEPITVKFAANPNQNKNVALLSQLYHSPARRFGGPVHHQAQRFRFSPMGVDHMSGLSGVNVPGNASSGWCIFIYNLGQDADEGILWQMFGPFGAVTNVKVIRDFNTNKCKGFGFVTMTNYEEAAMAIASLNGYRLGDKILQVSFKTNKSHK
Sequence of SWI/SNF-related matrix-associated actin-dependent regulator of chromatin subfamily A member 2 (P51531 whole entry): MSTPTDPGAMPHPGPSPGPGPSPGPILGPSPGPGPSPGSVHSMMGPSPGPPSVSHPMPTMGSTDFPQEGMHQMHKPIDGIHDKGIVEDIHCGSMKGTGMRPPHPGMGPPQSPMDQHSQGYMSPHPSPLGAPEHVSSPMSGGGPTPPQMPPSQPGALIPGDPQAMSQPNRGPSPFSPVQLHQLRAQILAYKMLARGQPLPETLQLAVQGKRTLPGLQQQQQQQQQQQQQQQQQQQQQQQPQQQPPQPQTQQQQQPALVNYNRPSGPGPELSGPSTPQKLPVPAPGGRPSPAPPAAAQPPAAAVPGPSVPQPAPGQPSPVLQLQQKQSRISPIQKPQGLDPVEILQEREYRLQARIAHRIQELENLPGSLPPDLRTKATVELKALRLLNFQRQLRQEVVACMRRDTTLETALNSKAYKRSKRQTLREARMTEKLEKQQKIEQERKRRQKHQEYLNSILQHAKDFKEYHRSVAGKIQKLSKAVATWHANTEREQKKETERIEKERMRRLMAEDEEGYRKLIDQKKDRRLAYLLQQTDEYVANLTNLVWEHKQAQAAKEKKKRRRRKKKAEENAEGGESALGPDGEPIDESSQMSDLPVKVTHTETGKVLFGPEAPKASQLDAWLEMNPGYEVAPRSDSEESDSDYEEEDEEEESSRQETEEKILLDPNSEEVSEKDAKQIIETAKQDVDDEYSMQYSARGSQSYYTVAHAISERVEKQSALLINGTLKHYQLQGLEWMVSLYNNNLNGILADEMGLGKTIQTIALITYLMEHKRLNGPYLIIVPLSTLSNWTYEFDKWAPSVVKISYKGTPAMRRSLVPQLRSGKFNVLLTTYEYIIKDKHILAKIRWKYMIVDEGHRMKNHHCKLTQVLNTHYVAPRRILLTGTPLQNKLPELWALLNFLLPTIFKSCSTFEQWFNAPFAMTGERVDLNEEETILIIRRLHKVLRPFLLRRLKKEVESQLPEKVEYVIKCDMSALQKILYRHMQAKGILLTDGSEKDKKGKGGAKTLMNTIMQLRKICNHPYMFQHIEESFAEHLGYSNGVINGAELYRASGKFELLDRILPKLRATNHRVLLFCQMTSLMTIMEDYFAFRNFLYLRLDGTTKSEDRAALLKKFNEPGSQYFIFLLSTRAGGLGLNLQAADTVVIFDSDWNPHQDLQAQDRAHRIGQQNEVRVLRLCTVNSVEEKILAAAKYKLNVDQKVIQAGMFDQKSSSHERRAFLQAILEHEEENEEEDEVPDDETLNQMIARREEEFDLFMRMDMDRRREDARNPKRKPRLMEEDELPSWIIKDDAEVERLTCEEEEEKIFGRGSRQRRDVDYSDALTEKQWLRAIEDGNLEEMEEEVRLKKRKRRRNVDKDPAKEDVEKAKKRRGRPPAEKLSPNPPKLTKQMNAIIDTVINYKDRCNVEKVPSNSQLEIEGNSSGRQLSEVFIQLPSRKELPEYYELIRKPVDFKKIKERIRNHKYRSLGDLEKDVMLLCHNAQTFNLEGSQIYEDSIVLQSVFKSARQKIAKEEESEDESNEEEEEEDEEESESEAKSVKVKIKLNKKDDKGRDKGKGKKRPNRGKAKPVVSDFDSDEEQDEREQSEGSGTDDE
Sequence of Kallikrein-7 (P49862 whole entry): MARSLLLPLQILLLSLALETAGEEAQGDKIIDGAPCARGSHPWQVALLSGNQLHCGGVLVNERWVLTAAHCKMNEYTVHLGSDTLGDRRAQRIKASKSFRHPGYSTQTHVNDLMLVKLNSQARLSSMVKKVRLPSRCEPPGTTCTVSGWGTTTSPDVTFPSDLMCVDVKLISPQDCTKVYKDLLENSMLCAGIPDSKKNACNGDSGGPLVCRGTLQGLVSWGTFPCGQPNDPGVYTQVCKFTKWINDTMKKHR
Sequence of NAD-dependent protein deacylase sirtuin-5, mitochondrial (Q9NXA8 whole entry): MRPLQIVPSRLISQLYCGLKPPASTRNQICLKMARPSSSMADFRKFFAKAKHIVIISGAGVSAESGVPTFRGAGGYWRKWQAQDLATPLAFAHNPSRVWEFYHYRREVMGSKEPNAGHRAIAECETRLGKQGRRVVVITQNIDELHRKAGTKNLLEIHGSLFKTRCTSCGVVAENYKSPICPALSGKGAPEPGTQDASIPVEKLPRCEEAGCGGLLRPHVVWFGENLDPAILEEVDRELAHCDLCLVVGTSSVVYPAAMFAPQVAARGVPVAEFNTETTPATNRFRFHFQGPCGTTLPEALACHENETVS

CCCCn1c(N)c(N(CCOC)C(=O)c2cc(-c3ccco3)nc3ccccc23)c(=O)[nH]c1=O
IC50 (Protein Tat): > 100 µM (active)

Cc1nn(-c2ccccn2)c2nc(-c3cccs3)cc(C(=O)N3CCOCC3)c12
EC50 (Kallikrein-7): > 69.5 µM (inactive)

Cc1c(C(=O)Nc2ccccn2)oc2ccccc12
IC50 [1]: > 67.5 µM (inactive)
EC50 [2]: > 67.5 µM (inactive)
EC50 [3]: 901 nM (active)

CC#CC#Cc1cccc(=O)o1
IC50 [4]: 16.5 µM (active)
IC50 (ELAV-like protein 1): 44.4 µM (active)
EC50 [5]: > 91 µM (inactive)
EC50 [6]: > 91 µM (inactive)
AC50 (Caspase-6): 9.68 µM (active)

O=C(Nc1ccc2c(c1)CCC2)C1CCN(c2c3c(nc4ncnn24)CCC3)CC1
AC50 [7]: 5.08 µM (active)
AC50 [8]: 3.88 µM (active)
AC50 [9]: 1.4 µM (active)
AC50 [10]: 9.44 µM (active)
AC50 [11]: > 70 µM (inactive)
AC50 [12]: 41.2 µM (active)

NC(=S)N/N=C/c1ccc(-c2ccc(Cl)c(Cl)c2)o1
EC50 (cells): > 67.5 µM (inactive)
EC50 [13]: 983 nM (active)
EC50 [14]: > 67.5 µM (inactive)
EC50 [15]: > 60 µM (not active)

O=C(C[C@H]1CC[C@H]2[C@@H](COC[C@@H](O)CN2S(=O)(=O)c2cccc(Cl)c2)O1)Nc1ccc(-c2ccccc2)cc1
AC50 [16]: 20.3 µM (active)
AC50 [17]: 37.9 µM (active)
AC50 [18]: 8.55 µM (active)
AC50 (Paired box protein Pax-8): 8.28 µM (active)
AC50 [19]: 3.85 µM (active)
AC50 [20]: 43 µM (active)
AC50 [21]: 27.7 µM (active)
AC50 [22]: 31.2 µM (active)

CC(C)CC#Cc1ccc2c(c1)O[C@@H](CN(C)S(=O)(=O)c1cccc(F)c1)[C@H](C)CN([C@H](C)CO)S2(=O)=O
AC50 [23]: 26.3 µM (active)

O=C1C(Nc2ccc(Cl)cc2)=C(N2CCCC2)C(=O)c2ccccc21
AC50 [24]: 39.2 µM (active)
AC50 [25]: 31.6 µM (active)
AC50 [26]: 41.5 µM (active)
AC50 [27]: 39.2 µM (active)
AC50 [28]: 50.9 µM (active)
AC50 [29]: 1.77 µM (active)
AC50 [30]: > 70 µM (inactive)
AC50 [31]: 3.48 µM (active)

O=C(NCCN1CCC2(CC1)C(=O)NCN2Cc1cccnc1)c1ccc2ccccc2c1
IC50 (Phospholipase D1): 20 µM (active)
IC50 (Phospholipase D2 [32]): 460 nM (active)
IC50 (Phospholipase D2 [33]): 8.7 µM (active)

Cn1c(NC(=O)c2ccccc2)nc2ncccc21
AbsAC90 [34]: 724.55 µM

COc1ccc(S(=O)(=O)N(C)C[C@H]2OCc3ccccc3-c3c(n(C)c4ccccc34)C(=O)N([C@@H](C)CO)C[C@@H]2C)cc1
AC50 [35]: 1.47 µM (active)

O=C(O)CCc1nc2ccccc2[nH]1 [PROCODAZOLE]
IC50 [36]: > 10 µM (inactive)
IC50 [37]: > 10 µM (inactive)
IC50 [38]: > 20 µM (inactive)
IC50 [39]: 2.42 µM (active)
IC50 [40]: > 20 µM (inactive)
IC50 [41]: > 20 µM (inactive)
IC50 [42]: 2.2 µM (active)
IC50 [43]: > 20 µM (inactive)
IC50 [44]: > 20 µM (inactive)
IC50 [45]: > 20 µM (inactive)
